Among the data in patent US11319303B2 (WIGEN BIOMEDICINE TECHNOLOGY (SHANGHAI) CO., LTD., priority 2017, dated 2022) are IC50 values, retold here.

Molecules are shown by their SMILES.

For the experiment, the target named is LC3B (Homo sapiens, UniProt Q9GZQ8). Nature of the experiment: Fluorescence Polarization (FP) Assay: displacement of FITC-labeled peptide from GST-LC3B. Format: binding. Particulars: Fluorescence Polarization assay; GST-LC3B 180 nM, FITC-labeled peptide 18 nM, 25° C.; read-out: IC50. The method, then:
The compounds of the present invention for regulating the autophagy-related protein LC3B were tested by Fluorescence Polarization (FP) Assay.
Fluorescence Polarization (FP) Assay Test
For orientation: Polarisation of emitted light reports the rotation of a fluorescent probe.
For the compound `COCCOCCOc1ccccc1C1CC(=O)C(=CNCCN2CCN(CCO)CC2)C(=O)C1` (centres unmarked) [Compound 41], the concentration for half-maximal inhibition (IC50) – broadly, the concentration that inhibits the measured activity by half – was in the range of 3 to 15 µM. The value for `COCCOc1ccccc1C1CC(=O)C(=CNCCN2CCN(CCO)CC2)C(=O)C1` (centres unmarked) [Compound 42, 2-(((2-(4-(2-hydroxyethyl)piperazin-1-yl)ethyl)amino)methylene)-5-(2-(2-methoxyethoxy)phenyl) cyclohexane-1,3-dione] was 3 to 15 µM; that for `O=C1CC(c2ccco2)CC(=O)C1=CNCCN1CCN(CCO)CC1` (centres unmarked) [Compound 43, 5-(furan-2-yl)-2-(((2-(4-(2-hydroxyethyl)piperazin-1-yl)ethyl)amino)methylene) cyclohexane-1,3-dione] was 3 to 15 µM; that for `COCCOc1ccc(C2CC(=O)C(=CNCCN3CCN(CCO)CC3)C(=O)C2)cc1` (centres unmarked) [Compound 44, 2-(((2-(4-(2-hydroxyethyl)piperazin-1-yl)ethyl)amino)methylene)-5-(4-(2-methoxyethoxy)phenyl) cyclohexane-1,3-dione] was 15 to 100 µM. The value for `COCCOCCOc1ccc(C2CC(=O)C(=CNCCN3CCN(CCO)CC3)C(=O)C2)cc1` (centres unmarked) [Compound 45, 2-(((2-(4-(2-hydroxyethyl)piperazin-1-yl)ethyl)amino)methylene)-5-(4-(2-(2-methoxyethoxy)ethoxy)phenyl) cyclohexane-1,3-dione] was 15 to 100 µM; that for `COc1ccc(C2CC(=O)C(=CNCCN3CCN(CCO)CC3)C(=O)C2)c(OC)c1` (centres unmarked) [Compound 46, 5-(2,4-dimethoxyphenyl)-2-(((2-(4-(2-hydroxyethyl)piperazin-1-yl)ethyl)amino)methylene) cyclohexane-1,3-dione] was less than 3 µM; that for `O=C1CC(c2ccc(C(F)(F)F)cc2)CC(=O)C1=CNCCN1CCN(CCO)CC1` (centres unmarked) [Compound 48, 2-(((2-(4-(2-hydroxyethyl)piperazin-1-yl)ethyl)amino)methylene)-5-(4-(trifluoromethyl)phenyl) cyclohexane-1,3-dione] was less than 3 µM. The value for `O=C1CC(c2ccc(F)cc2)CC(=O)C1=CNCCN1CCN(CCO)CC1` (centres unmarked) [Compound 49, 5-(4-fluorophenyl)-2-(((2-(4-(2-hydroxyethyl)piperazin-1-yl)ethyl)amino)methylene) cyclohexane-1,3-dione] was less than 3 µM; that for `O=C1CC(c2ccc(OC(F)(F)F)cc2)CC(=O)C1=CNCCN1CCN(CCO)CC1` (centres unmarked) [Compound 50, 2-(((2-(4-(2-hydroxyethyl)piperazin-1-yl)ethyl)amino)methylene)-5-(4-(trifluoromethoxy)phenyl) cyclohexane-1,3-dione] was less than 3 µM. `N#Cc1ccc(C2CC(=O)C(=CNCCN3CCN(CCO)CC3)C(=O)C2)cc1` (centres unmarked) [Compound 51, 2-(((2-(4-(2-hydroxyethyl)piperazin-1-yl)ethyl)amino)methylene)-5-(4-(cyano)phenyl) cyclohexane-1,3-dione]: the half-inhibitory concentration (IC50) lay in the range of 15 to 100 µM. As to `O=C1CC(c2ccccn2)CC(=O)C1=CNCCN1CCN(CCO)CC1` (centres unmarked) [Compound 53, 2-(((2-(4-(2-hydroxyethyl)piperazin-1-yl)ethyl)amino)methylene)-5-(pyridin-2-yl) cyclohexane-1,3-dione], the half-maximal inhibitory concentration (IC50) is 15 to 100 µM.

In the case of `COc1ccc(C2CC(=O)C(=CNCCN3CCN(CCO)CC3)C(=O)C2)c2ccccc12` (centres unmarked) [Compound 54, 2-(((2-(4-(2-hydroxyethyl)piperazin-1-yl)ethyl)amino)methylene)-5-(4-methoxy-naphthalen-1-yl)cyclohexane-1,3-dione], the IC50 was less than 3 µM.

Take `Cn1cccc1C1CC(=O)C(=CNCCN2CCN(CCO)CC2)C(=O)C1` (centres unmarked) [Compound 55, 2-(((2-(4-(2-hydroxyethyl)piperazin-1-yl)ethyl)amino)methylene)-5-(1-methyl-1H-pyrrol-2-yl)cyclohexane-1,3-dione]: the IC50 was in the range of 15 to 100 µM. The value for `O=C1CC(c2cccc3c2OCCO3)CC(=O)C1=CNCCN1CCN(CCO)CC1` (centres unmarked) [Compound 56, 5-(2,3-dihydrobenzo [b][1,4]dioxin-5-yl)-2-(((2-(4-(2-hydroxyethyl)piperazin-1-yl)ethyl)amino)methylene) cyclohexane-1,3-dione] was 3 to 15 µM.
